The source of these data is patent US9546164B2 (GENENTECH, INC., priority 2013, dated 2017).

The structures appear in SMILES notation. pIC50: −log10 of the molar value. Where a name gives a salt, the structure may show the parent alone.

In the first assay the target is hNav1.7 (Homo sapiens (Human), UniProt Q15858). Nature of the assay: Tritiated sulfonamide competitive binding to membranes from cells expressing hNav1.7 and the β1 subunit.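 Also: Filter-bound radioactivity counted by liquid scintillation, nonspecific binding defined with excess unlabelled ligand, IC50 fitted to percent inhibition of specific binding.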
Sequence of hNav1.7 (Q15858 other isoform, or with tags, fused parts or gaps): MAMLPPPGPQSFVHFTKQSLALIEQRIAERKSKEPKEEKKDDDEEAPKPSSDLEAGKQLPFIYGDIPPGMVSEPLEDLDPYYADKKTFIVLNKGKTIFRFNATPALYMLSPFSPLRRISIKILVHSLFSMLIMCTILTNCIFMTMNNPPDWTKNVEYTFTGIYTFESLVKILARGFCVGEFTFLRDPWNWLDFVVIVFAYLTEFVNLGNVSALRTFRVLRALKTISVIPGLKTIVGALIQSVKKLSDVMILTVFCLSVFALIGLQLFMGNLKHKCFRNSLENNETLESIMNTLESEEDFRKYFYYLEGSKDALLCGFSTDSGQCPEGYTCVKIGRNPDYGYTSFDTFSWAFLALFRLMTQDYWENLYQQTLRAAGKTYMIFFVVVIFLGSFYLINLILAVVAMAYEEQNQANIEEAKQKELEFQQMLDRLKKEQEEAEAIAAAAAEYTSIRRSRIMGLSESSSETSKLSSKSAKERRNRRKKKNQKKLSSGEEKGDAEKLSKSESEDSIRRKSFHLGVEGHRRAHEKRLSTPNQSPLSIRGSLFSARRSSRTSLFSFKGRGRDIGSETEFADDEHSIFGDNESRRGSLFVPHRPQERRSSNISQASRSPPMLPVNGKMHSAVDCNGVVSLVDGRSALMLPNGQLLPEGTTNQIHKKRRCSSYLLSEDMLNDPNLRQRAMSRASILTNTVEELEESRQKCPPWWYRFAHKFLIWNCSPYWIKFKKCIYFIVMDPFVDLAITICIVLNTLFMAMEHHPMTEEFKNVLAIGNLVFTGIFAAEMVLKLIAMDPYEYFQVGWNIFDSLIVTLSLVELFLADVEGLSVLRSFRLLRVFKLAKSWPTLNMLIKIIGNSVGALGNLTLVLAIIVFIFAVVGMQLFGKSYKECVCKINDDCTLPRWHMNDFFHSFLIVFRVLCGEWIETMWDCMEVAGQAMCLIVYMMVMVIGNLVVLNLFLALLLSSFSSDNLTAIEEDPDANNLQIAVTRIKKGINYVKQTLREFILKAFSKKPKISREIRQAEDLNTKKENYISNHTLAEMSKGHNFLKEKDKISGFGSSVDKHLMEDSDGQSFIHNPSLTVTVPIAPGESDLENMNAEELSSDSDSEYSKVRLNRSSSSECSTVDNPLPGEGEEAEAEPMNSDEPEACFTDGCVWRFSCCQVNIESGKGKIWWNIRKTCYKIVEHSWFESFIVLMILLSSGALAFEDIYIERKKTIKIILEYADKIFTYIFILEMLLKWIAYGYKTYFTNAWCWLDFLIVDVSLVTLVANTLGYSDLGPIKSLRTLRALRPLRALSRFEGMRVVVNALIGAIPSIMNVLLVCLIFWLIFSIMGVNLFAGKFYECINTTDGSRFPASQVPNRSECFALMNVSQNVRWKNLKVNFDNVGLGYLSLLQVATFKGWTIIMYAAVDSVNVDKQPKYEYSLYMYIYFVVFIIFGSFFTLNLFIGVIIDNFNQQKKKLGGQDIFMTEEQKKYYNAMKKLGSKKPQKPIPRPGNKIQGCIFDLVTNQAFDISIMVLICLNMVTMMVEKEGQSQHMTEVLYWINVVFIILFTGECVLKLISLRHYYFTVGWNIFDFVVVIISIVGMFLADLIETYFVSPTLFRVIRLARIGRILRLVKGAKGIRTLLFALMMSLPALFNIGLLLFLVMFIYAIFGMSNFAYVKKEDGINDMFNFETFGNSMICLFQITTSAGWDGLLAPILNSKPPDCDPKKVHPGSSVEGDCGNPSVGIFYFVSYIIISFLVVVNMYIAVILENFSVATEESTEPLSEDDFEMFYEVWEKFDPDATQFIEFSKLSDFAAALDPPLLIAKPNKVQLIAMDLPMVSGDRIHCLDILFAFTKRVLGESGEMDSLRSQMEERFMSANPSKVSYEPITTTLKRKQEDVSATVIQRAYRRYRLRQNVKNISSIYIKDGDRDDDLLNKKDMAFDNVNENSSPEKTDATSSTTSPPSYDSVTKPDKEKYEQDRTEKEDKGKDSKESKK
Sequence of hNav1.7 (Q07699 19-218 partner): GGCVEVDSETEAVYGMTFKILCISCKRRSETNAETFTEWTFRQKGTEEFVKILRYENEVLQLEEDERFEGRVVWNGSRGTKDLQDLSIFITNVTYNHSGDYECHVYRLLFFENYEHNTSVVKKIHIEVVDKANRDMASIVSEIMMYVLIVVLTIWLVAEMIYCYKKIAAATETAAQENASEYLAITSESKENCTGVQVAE
Conditions: not given
For the compound `CC(=O)N1CCC[C@@H](Oc2cc(F)c(C(=O)NS(=O)(=O)C3CC3)cc2C2CC2)C1` [Example 4, (R)-4-((1-acetylpiperidin-3-yl)oxy)-5-cyclopropyl-N-(cyclopropylsulfonyl)-2-fluorobenzamide], the pIC50 was 5.18.

The compound `CS(=O)(=O)NC(=O)c1cc(C2CC2)c(O[C@@H]2CCCN(Cc3cccc(Cl)c3)C2)cc1F` [Example 26, (R)-4-((1-(3-chlorobenzyl)piperidin-3-yl)oxy)-5-cyclopropyl-2-fluoro-N-(methylsulfonyl)benzamide acid] had a pIC50 of 8.21.

The compound `O=C(NS(=O)(=O)N1CCC1)c1cc(C2CC2)c(O[C@@H]2CCCN(c3cc(Cl)cc(Cl)c3)C2)cc1F` [Example 43, (R)—N-(azetidin-1-ylsulfonyl)-5-cyclopropyl-4-((1-(3,5-dichlorophenyl)piperidin-3-yl)oxy)-2-fluorobenzamide] showed a pIC50 of 8.31.

In the case of `CC(C)(C)N1CCC[C@@H](Oc2cc(F)c(C(=O)NS(C)(=O)=O)cc2C2CC2)C1` [Example 538, (R)-4-((1-(tert-butyl)piperidin-3-yl)oxy)-5-cyclopropyl-2-fluoro-N-(methylsulfonyl)benzamide], the pIC50 was 5.15.

Turning to `O=C(NS(=O)(=O)N1CCC1)c1cc(C2CC2)c(O[C@@H]2CCCN(Cc3cccc(Cl)c3)C2)cc1F` [Example 28, (R)—N-(azetidin-1-ylsulfonyl)-4-((1-(3-chlorobenzyl)piperidin-3-yl)oxy)-5-cyclopropyl-2-fluorobenzamide], the pIC50 is 8.13.

The same assay, now with this note: read-out: Ligand Binding Assay; 100 pM [3H]compound, membranes with hNav1.7 and β1 subunit, 18 h, room temperature.
Consider `CS(=O)(=O)NC(=O)c1cc(C2CC2)c(OCC2CN([C@H](c3ccccc3)c3ccc(OC(F)(F)F)cc3)C2)cc1F` [Example 113, (R)-5-Cyclopropyl-2-fluoro-N-(methylsulfonyl)-4-((1-(phenyl(4-(trifluoromethoxy)phenyl)methyl)azetidin-3-yl)methoxy)benzamide], for which the pIC50 is 7.95.

Turning to `CS(=O)(=O)NC(=O)c1cc(C2CC2)c(OCC2CN(Cc3cc(Cl)cc(Cl)c3)C2)cc1F` [Example 132, 5-Cyclopropyl-4-((1-(3,5-dichlorobenzyl)azetidin-3-yl)methoxy)-2-fluoro-N-(methylsulfonyl)benzamide], the pIC50 was 7.85.

With `CS(=O)(=O)NC(=O)c1cc(C2CC2)c(OCC2CN(c3cc(C(F)(F)F)c(Cl)cn3)C2)cc1F` [Example 542, 4-((1-(5-chloro-4-(trifluoromethyl)pyridin-2-yl)azetidin-3-yl)methoxy)-5-cyclopropyl-2-fluoro-N-(methylsulfonyl)benzamide], the pIC50 is 7.57.

As to `CC1(COc2cc(F)c(C(=O)NS(C)(=O)=O)cc2C2CC2)CCN(Cc2cc(Cl)ccc2C(F)(F)F)CC1` [Example 122], the pIC50 was 8.62.

`CCCCS(=O)(=O)NC(=O)c1cc(C2CC2)c(OCC2CN(C(c3ccccc3)c3ccccc3)C2)cc1F` [Example 65, 4-((1-benzhydrylazetidin-3-yl)methoxy)-N-(butylsulfonyl)-5-cyclopropyl-2-fluorobenzamide]: the pIC50 is 7.47.

With `O=C(NS(=O)(=O)C1CC1)c1cc(C2CC2)c(OCC2CCN(S(=O)(=O)c3cccc(C(F)(F)F)c3)CC2)cc1F` [Example 375, 5-cyclopropyl-N-(cyclopropylsulfonyl)-2-fluoro-4-((1-((3-(trifluoromethyl)phenyl)sulfonyl)piperidin-4-yl)methoxy)benzamide], the pIC50 was 7.84.

On to `CS(=O)(=O)NC(=O)c1cc(C2CC2)c(OCC2CCN(C(=O)c3cc(Cl)cc(Cl)c3)CC2)cc1F` [Example 253, 5-Cyclopropyl-4-((1-(3,5-dichlorobenzoyl)piperidin-4-yl)methoxy)-2-fluoro-N-(methylsulfonyl)benzamide], for which the pIC50 was 7.70.

On to `CS(=O)(=O)NC(=O)c1cc(C2CC2)c(O[C@@H]2CCCN(CC3(C(F)(F)F)CCC3)C2)cc1F` [Example 328, (R)-5-cyclopropyl-2-fluoro-N-(methylsulfonyl)-4-((1-((1-(trifluoromethyl)cyclobutyl)methyl)piperidin-3-yl)oxy)benzamide], for which the pIC50 was 8.19.

For `CC1(COc2cc(F)c(C(=O)NS(C)(=O)=O)cc2C2CC2)CCN(Cc2cc(C(F)(F)F)cc(Cl)c2F)CC1` [Example 141, 4-((1-(3-chloro-2-fluoro-5-(trifluoromethyl)benzyl)-4-methylpiperidin-4-yl)methoxy)-5-cyclopropyl-2-fluoro-N-(methylsulfonyl)benzamide], the pIC50 is 8.41.

As for `CS(=O)(=O)NC(=O)c1cc(C2CC2)c(OCC2CCN(Cc3cc(C(F)(F)F)cc(Cl)c3F)CC2)cc1F` [Example 581, 4-((1-(3-chloro-2-fluoro-5-(trifluoromethyl)benzyl)piperidin-4-yl)methoxy)-5-cyclopropyl-2-fluoro-N-(methylsulfonyl)benzamide], the pIC50 was 8.42.

Consider `CCS(=O)(=O)NC(=O)c1cc(C2CC2)c(OCC2CCN(Cc3cc(Cl)cc(Cl)c3)CC2)cc1F` [Example 184, 5-Cyclopropyl-4-((1-(3,5-dichlorobenzyl)piperidin-4-yl)methoxy)-N-(ethylsulfonyl)-2-fluorobenzamide], for which the pIC50 was 8.29.

For the compound `CS(=O)(=O)NC(=O)c1cc(C2CC2)c(CN2CCC(OCc3ccc(F)cc3Cl)CC2)cc1F` [Example 478, 4-((4-((2-chloro-4-fluorobenzyl)oxy)piperidin-1-yl)methyl)-5-cyclopropyl-2-fluoro-N-(methylsulfonyl)benzamide, trifluoroacetic acid salt], the pIC50 is 7.42.

For `O=C(NS(=O)(=O)C1CC1)c1cc(C2CC2)c(OCCC2CCN(Cc3cc(Cl)cc(Cl)c3)CC2)cc1F` [Example 304, 5-cyclopropyl-N-(cyclopropylsulfonyl)-4-(2-(1-(3,5-dichlorobenzyl)piperidin-4-yl)ethoxy)-2-fluorobenzamide, trifluoroacetic acid salt], the pIC50 was 8.43.

In the case of `O=C(NS(=O)(=O)C1CC1)c1cc(C2CC2)c(OCC2CCN(S(=O)(=O)c3ccc(C(F)(F)F)cc3Cl)CC2)cc1F` [Example 385, 4-((1-((2-chloro-4-(trifluoromethyl)phenyl)sulfonyl)piperidin-4-yl)methoxy)-5-cyclopropyl-N-(cyclopropylsulfonyl)-2-fluorobenzamide], the pIC50 is 8.00.

For the compound `CS(=O)(=O)NC(=O)c1cc(C2CC2)c(OCC2CCN(CC(F)(F)F)CC2)cc1F` [Example 116, 5-Cyclopropyl-2-fluoro-N-(methylsulfonyl)-4-((1-(2,2,2-trifluoroethyl)-piperidin-4-yl)methoxy)benzamide], the pIC50 was 7.11.

With `CS(=O)(=O)NC(=O)c1cc(C2CC2)c(CN2CCO[C@H](Cc3ccc(Cl)c(Cl)c3)C2)cc1F` [Example 458, (R)-5-cyclopropyl-4-((2-(3,4-dichlorobenzyl)morpholino)methyl)-2-fluoro-N-(methylsulfonyl)benzamide], the pIC50 was 8.36.

`CCS(=O)(=O)NC(=O)c1cc(C2CC2)c(OCC2CCN(C(C)c3cc(Cl)cc(Cl)c3)CC2)cc1F` (stereo not shown) [Example 101, 5-Cyclopropyl-4-((1-(1-(3,5-dichlorophenyl)ethyl)piperidin-4-yl)methoxy)-N-(ethylsulfonyl)-2-fluorobenzamide]: the pIC50 is 8.42.
